# Values of other authors in the PKSmart pharmacokinetics tables (Seal et al. 2025).
# Test: Lombardo, Berellini, Obach 2018, Drug Metab Dispos 46:1466, doi 10.1124/dmd.118.082966
# Conditions: human; for MRT / Vd / clearance / half-life: in vivo, iv; for fraction unbound: plasma
SMILES,MRT,Vd,clearance,half-life,fraction unbound
C[C@H]1O[C@@H](n2cc(F)c(=O)[nH]c2=O)[C@H](O)[C@@H]1O,0.46 h,0.28 L/kg,11 mL/min/kg,21 min,
CN(C)C(=O)CCS[C@H](SCCC(=O)O)c1cccc(/C=C/c2ccc3ccc(Cl)cc3n2)c1,2.7 h,0.11 L/kg,0.68 mL/min/kg,138 min,0.0004
CCN1CC(CCN2CCOCC2)C(c2ccccc2)(c2ccccc2)C1=O (centres undefined),3.7 h,1.2 L/kg,5.3 mL/min/kg,246 min,
NN=c1cc2c(n[nH]1)CCN(C(=O)c1ccccc1)C2,2.7 h,2.2 L/kg,13 mL/min/kg,336 min,
CC[C@@]1(O)C(=O)OCc2c1cc1n(c2=O)Cc2c-1nc1ccccc1c2CC[Si](C)(C)C,13.3 h,3.26 L/kg,4.2 mL/min/kg,792 min,
Nc1nc(F)nc2c1ncn2[C@@H]1O[C@H](CO)[C@@H](O)[C@@H]1O,12 h,2.2 L/kg,3.2 mL/min/kg,660 min,0.76
COc1cc(C2c3cc4c(cc3C(OC3OC5COC(C)OC5C(O)C3N(C)C)C3COC(=O)C23)OCO4)cc(OC)c1O (centres undefined),17 h,0.3 L/kg,0.4 mL/min/kg,840 min,0.013
CN(C)Cc1nnc2n1-c1ccc(Cl)cc1C(c1ccccc1)=NC2,2.6 h,0.98 L/kg,6.2 mL/min/kg,126 min,
O=C1CCc2ccc(OCCCCN3CCN(c4cccc(Cl)c4Cl)CC3)cc2N1,98 h,4.9 L/kg,0.83 mL/min/kg,4500 min,
CC(=O)OC1=C2C(C)[C@@H](OC(=O)C(O)C(NC(=O)c3ccccc3)c3ccccc3)C[C@@](O)([C@@H](OC(=O)c3ccccc3)[C@@H]3[C@]4(OC(C)=O)CO[C@@H]4C[C@H](O)[C@@]3(C)C1=O)C2(C)C (some centres undefined),7.8 h,3 L/kg,6.4 mL/min/kg,660 min,0.12
NC(=O)N1C(=O)C(C(=O)c2cccs2)c2cc(Cl)ccc21 (centres undefined),31.6 h,0.11 L/kg,0.058 mL/min/kg,1360 min,0.01
C[C@H](Cc1cc2c(c(C(N)=O)c1)N(CCCO)CC2)NCCOc1ccccc1OCC(F)(F)F,,,2.8 mL/min/kg,216 min,0.05
COc1cc(CC2c3c(cc(OC)c(OC)c3OC)CC[N+]2(C)CCCOC(=O)CCC(=O)OCCC[N+]2(C)CCc3cc(OC)c(OC)c(OC)c3C2Cc2cc(OC)c(OC)c(OC)c2)cc(OC)c1OC (centres undefined),1.4 h,0.22 L/kg,2.7 mL/min/kg,102 min,0.53
O=c1[nH]c2ccccc2n1CCCN1CCC(n2c(=O)[nH]c3cc(Cl)ccc32)CC1,6 h,3.4 L/kg,9.5 mL/min/kg,,
COc1ccccc1N1CCN(CCCNc2cc(=O)n(C)c(=O)n2C)CC1,4 h,0.75 L/kg,3.1 mL/min/kg,210 min,
CCc1ccc(Cc2ccc3c(c2)[C@]2(OC3)O[C@H](CO)[C@@H](O)[C@H](O)[C@H]2O)cc1,5.1 h,0.63 L/kg,2.07 mL/min/kg,282 min,0.46
CNC(=O)Nc1c(OCCN2CCCC2)c(OC)c2occc2c1OC,4.2 h,0.8 L/kg,3.2 mL/min/kg,300 min,
CC(C)n1c(/C=C/[C@H](O)C[C@H](O)CC(=O)O)c(-c2ccc(F)cc2)c2ccccc21,0.44 h,0.42 L/kg,,42 min,

SMILES,MRT,Vd,clearance,half-life,fraction unbound
C=CCC1(C(C)C#CCC)C(=O)NC(=O)N(C)C1=O (centres undefined),1.5 h,1.1 L/kg,12 mL/min/kg,96 min,0.27
C[C@]12CC[C@@H]3c4ccc([O-])cc4C[C@H](CCCCCCCCC[S+](O)CCCC(F)(F)C(F)(F)F)C3[C@@H]1CC[C@@H]2O (some centres undefined),5.86 h,4.15 L/kg,11.8 mL/min/kg,960 min,0.01
Cc1ccc(C(CN)CC(=O)O)cc1 (centres undefined),6.36 h,0.65 L/kg,1.7 mL/min/kg,314 min,0.69
C[C@]12C[C@]3(O)O[C@@H](O1)[C@@]1(COC(=O)c4ccccc4)[C@@H]3C[C@]12O[C@@H]1O[C@H](CO)[C@@H](O)[C@H](O)[C@H]1O,,,,,0.77
CCOc1cc(Cc2cnc(N)nc2N)cc(OCC)c1-n1cccc1,,2.5 L/kg,3.5 mL/min/kg,564 min,0.12
CC1=NS(=O)(=O)c2cc(Cl)ccc2N1,58 h,0.21 L/kg,0.06 mL/min/kg,2880 min,
C[C@@H](Oc1cc(-n2cnc3ccc(CN4CCN(C)CC4)cc32)sc1C(N)=O)c1ccccc1C(F)(F)F,10 h,12 L/kg,20 mL/min/kg,618 min,
C=C(C)[C@@H]1CCC(C)=C[C@H]1c1c(O)cc(CCCCC)cc1O,8.23 h,6.69 L/kg,13.6 mL/min/kg,1430 min,
CC(C(=O)O)c1ccc(C(=O)c2ccccc2)s1 (centres undefined),2.3 h,0.08 L/kg,0.62 mL/min/kg,126 min,0.015
NS(=O)(=O)OC[C@@H]1C[C@@H](n2ccc3c(N[C@H]4CCc5ccccc54)ncnc32)C[C@@H]1O,6.21 h,3.02 L/kg,8.1 mL/min/kg,337 min,
CCn1cc(C(=O)O)c(=O)c2cc(F)c(N3CCNCC3)cc21,4.5 h,1.88 L/kg,6.96 mL/min/kg,267 min,0.13
CC(=O)O[C@@]12CO[C@@H]1C[C@H](O)[C@@]1(C)C(=O)C(=O)C3C(C)[C@@H](OC(=O)C(O)C(NC(=O)OC(C)(C)C)c4ccccc4)C[C@@](O)([C@@H](OC(=O)c4ccccc4)[C@H]21)C3(C)C (some centres undefined),2.5 h,2.1 L/kg,14 mL/min/kg,660 min,0.04
CNC(=O)Oc1ccc2c(c1)[C@@]1(C)CCN(C)[C@@H]1N2C,0.9 h,3.9 L/kg,72 mL/min/kg,60 min,0.64
COc1ccc2c(c1)c(CC(=O)O)c(C)n2C(=O)c1ccc(Cl)cc1,1.2 h,0.096 L/kg,1.3 mL/min/kg,84 min,
Cc1nccn1CCC(C(N)=O)(c1ccccc1)c1ccccc1,4.1 h,1.51 L/kg,6.1 mL/min/kg,192 min,0.12
OCc1ncc2n1-c1ccc(Cl)cc1C(c1ccccc1F)=NC2,1.3 h,0.77 L/kg,9.71 mL/min/kg,66 min,0.1
C[N+]1(C)[C@@H]2CC(OC(=O)C(O)(c3cccs3)c3cccs3)C[C@H]1[C@@H]1O[C@@H]12 (some centres undefined),42.3 h,32 L/kg,,,0.28
